# Assay results published in ChEMBL document CHEMBL5154811, “Discovery of SPH5030, a Selective, Potent, and Irreversible Tyrosine Kinase Inhibitor for HER2-Amplified and HER2-Mutant Cancer Treatment” (J Med Chem, 2022).
# Tested on: BT-474
# Experiment: Antiproliferative activity against human BT-474 cells assessed as inhibition of cell growth incubated for 72 hrs by Celltiter-Glo assay
# Type: functional, cell-based
# Details: BT-474, 72 h
row,Compound,IC50 [nM]
1,Cc1cc(Nc2ncnc3cc(O)c(NC(=O)/C=C/[C@H]4CCCN4C)cc23)ccc1Oc1cnn2cnnc2c1,20.8
2,Cc1cc(Nc2c(C#N)cnc3ccc(NC(=O)/C=C/CN(C)C)cc23)ccc1Oc1cc2nncn2cn1,14.9
3,Cc1cc(Nc2ncnc3cc(O)c(NC(=O)/C=C/[C@H]4CCCN4C)cc23)ccc1Oc1cnc2ccnn2c1,3.11
4,Cc1cc(Nc2ncnc3cc(O)c(NC(=O)/C=C/[C@H]4CCCN4C)cc23)ccc1Oc1ccc2nccn2c1,5.22
5,Cc1cc(Nc2ncnc3cc(O)c(NC(=O)/C=C/[C@H]4CCCN4C)cc23)ccc1Oc1ccn2ncnc2c1,2.4
6,Cc1cc(Nc2ncnc3ccc(NC(=O)/C=C/CN(C)C)cc23)ccc1Oc1cc2nncn2cn1,8.05
7,Cc1cc(Nc2ncnc3cc(O)c(NC(=O)/C=C/[C@H]4CCCN4C)cc23)ccc1Oc1cc2nccn2cn1,5.59

# Further molecules by falling IC50, results first:
row,IC50 [nM],Compound
1,26.8,Cc1cc(Nc2ncnc3cc(O)c(NC(=O)/C=C/[C@H]4CCCN4C)cc23)ccc1Oc1ccn2cnnc2c1
2,4.69,C=CC(=O)Nc1cc2c(Nc3ccc(Oc4cc5nncn5cn4)c(C)c3)ncnc2cc1OCC
3,4.63,Cc1cc(Nc2ncnc3cc(O)c(NC(=O)/C=C/[C@H]4CCCN4C)cc23)ccc1Oc1ccn2ccnc2c1
4,2.65,CCOc1cc2ncnc(Nc3ccc(Oc4cc5nncn5cn4)c(C)c3)c2cc1NC(=O)/C(F)=C/[C@@H]1CCCN1C

# Tested on: NCI-N87
# Experiment: Antiproliferative activity against human NCI-N87 cells assessed as inhibition of cell growth incubated for 72 hrs by Celltiter-Glo assay
# Type: functional, cell-based
# Details: NCI-N87, 72 h
row,Compound,IC50 [nM]
1,C=CC(=O)Nc1cc2c(Nc3ccc(Oc4cc5nncn5cn4)c(C)c3)ncnc2cc1OCC,51.9
2,Cc1cc(Nc2ncnc3cc(O)c(NC(=O)/C=C/[C@H]4CCCN4C)cc23)ccc1Oc1cnn2cnnc2c1,28.3
3,Cc1cc(Nc2c(C#N)cnc3ccc(NC(=O)/C=C/CN(C)C)cc23)ccc1Oc1cc2nncn2cn1,19.2
4,Cc1cc(Nc2ncnc3cc(O)c(NC(=O)/C=C/[C@H]4CCCN4C)cc23)ccc1Oc1cnc2ccnn2c1,1.9
5,Cc1cc(Nc2ncnc3cc(O)c(NC(=O)/C=C/[C@H]4CCCN4C)cc23)ccc1Oc1ccn2cnnc2c1,32.9
6,Cc1cc(Nc2ncnc3cc(O)c(NC(=O)/C=C/[C@H]4CCCN4C)cc23)ccc1Oc1ccc2nccn2c1,4.08
7,CCOc1cc2ncnc(Nc3ccc(Oc4cc5nncn5cn4)c(C)c3)c2cc1NC(=O)/C(F)=C/[C@@H]1CCCN1C,1.55
8,Cc1cc(Nc2ncnc3cc(O)c(NC(=O)/C=C/[C@H]4CCCN4C)cc23)ccc1Oc1ccn2ncnc2c1,2.65
9,Cc1cc(Nc2ncnc3ccc(NC(=O)/C=C/CN(C)C)cc23)ccc1Oc1cc2nncn2cn1,11.7
10,Cc1cc(Nc2ncnc3cc(O)c(NC(=O)/C=C/[C@H]4CCCN4C)cc23)ccc1Oc1cc2nccn2cn1,41.7
11,Cc1cc(Nc2ncnc3cc(O)c(NC(=O)/C=C/[C@H]4CCCN4C)cc23)ccc1Oc1ccn2ccnc2c1,4.55

# Target: Receptor tyrosine-protein kinase erbB-2 (Homo sapiens, UniProt P04626)
# Sequence (P04626 whole entry): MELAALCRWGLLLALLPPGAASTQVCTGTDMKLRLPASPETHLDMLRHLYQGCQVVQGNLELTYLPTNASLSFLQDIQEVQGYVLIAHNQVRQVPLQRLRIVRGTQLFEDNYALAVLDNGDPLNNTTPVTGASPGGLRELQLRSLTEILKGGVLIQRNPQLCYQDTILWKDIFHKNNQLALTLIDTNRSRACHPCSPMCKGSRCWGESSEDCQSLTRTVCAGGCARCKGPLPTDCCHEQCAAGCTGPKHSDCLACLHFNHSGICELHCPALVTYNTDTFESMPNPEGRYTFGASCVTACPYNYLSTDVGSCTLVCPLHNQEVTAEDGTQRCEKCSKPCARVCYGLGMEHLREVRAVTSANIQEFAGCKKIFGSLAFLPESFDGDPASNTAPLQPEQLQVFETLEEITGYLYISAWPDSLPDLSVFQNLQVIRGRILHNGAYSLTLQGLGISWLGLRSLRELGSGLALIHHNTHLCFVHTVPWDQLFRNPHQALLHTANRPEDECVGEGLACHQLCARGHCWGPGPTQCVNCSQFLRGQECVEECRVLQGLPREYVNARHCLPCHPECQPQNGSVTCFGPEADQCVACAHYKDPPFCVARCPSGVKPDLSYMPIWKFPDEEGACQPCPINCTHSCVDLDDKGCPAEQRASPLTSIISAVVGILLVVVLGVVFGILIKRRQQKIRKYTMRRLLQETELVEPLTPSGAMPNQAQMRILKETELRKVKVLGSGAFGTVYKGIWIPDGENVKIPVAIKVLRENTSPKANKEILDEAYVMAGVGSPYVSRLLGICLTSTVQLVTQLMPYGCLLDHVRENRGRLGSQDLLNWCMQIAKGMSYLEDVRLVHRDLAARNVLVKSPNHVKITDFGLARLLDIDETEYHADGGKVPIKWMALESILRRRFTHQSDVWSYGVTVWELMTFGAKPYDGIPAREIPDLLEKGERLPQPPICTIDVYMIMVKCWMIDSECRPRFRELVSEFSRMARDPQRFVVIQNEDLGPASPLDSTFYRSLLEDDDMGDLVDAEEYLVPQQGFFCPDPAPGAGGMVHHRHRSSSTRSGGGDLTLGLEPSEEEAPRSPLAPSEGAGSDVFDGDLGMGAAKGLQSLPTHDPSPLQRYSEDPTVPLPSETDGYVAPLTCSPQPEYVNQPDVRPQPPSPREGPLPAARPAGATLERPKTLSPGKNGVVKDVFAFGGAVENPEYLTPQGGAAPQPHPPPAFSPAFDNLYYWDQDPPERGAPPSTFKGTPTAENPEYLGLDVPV
# Experiment: Inhibition of wild type human GST-tagged HER2 (676 to end residues) expressed in baculovirus infected Sf9 cells incubated for 30 mins in presence of ATP by HTRF analysis
# Details: not given
row,Compound,IC50 [nM]
1,Cc1cc(Nc2ncnc3cc(O)c(NC(=O)/C=C/[C@H]4CCCN4C)cc23)ccc1Oc1cnn2cnnc2c1,16
2,Cc1cc(Nc2c(C#N)cnc3ccc(NC(=O)/C=C/CN(C)C)cc23)ccc1Oc1cc2nncn2cn1,62.3
3,Cc1cc(Nc2ncnc3cc(O)c(NC(=O)/C=C/[C@H]4CCCN4C)cc23)ccc1Oc1cnc2ccnn2c1,2.41
4,Cc1cc(Nc2ncnc3cc(O)c(NC(=O)/C=C/[C@H]4CCCN4C)cc23)ccc1Oc1ccc2nccn2c1,6.42
5,Cc1cc(Nc2ncnc3cc(O)c(NC(=O)/C=C/[C@H]4CCCN4C)cc23)ccc1Oc1ccn2ncnc2c1,1.43
6,Cc1cc(Nc2ncnc3ccc(NC(=O)/C=C/CN(C)C)cc23)ccc1Oc1cc2nncn2cn1,2.85
7,Cc1cc(Nc2ncnc3cc(O)c(NC(=O)/C=C/[C@H]4CCCN4C)cc23)ccc1Oc1cc2nccn2cn1,1.06

# Continued, values first:
row,IC50 [nM],Compound
1,6.31,Cc1cc(Nc2ncnc3cc(O)c(NC(=O)/C=C/[C@H]4CCCN4C)cc23)ccc1Oc1ccn2cnnc2c1
2,1.93,C=CC(=O)Nc1cc2c(Nc3ccc(Oc4cc5nncn5cn4)c(C)c3)ncnc2cc1OCC
3,1.7,Cc1cc(Nc2ncnc3cc(O)c(NC(=O)/C=C/[C@H]4CCCN4C)cc23)ccc1Oc1ccn2ccnc2c1
4,3.38,CCOc1cc2ncnc(Nc3ccc(Oc4cc5nncn5cn4)c(C)c3)c2cc1NC(=O)/C(F)=C/[C@@H]1CCCN1C

# Tested on: not listed separately
# Experiment: Metabolic stability in human liver microsomes assessed as intrinsic clearance at 1 uM preincubated for 5 mins followed by NADPH addition by LC-MS/MS analysis
# Type: ADME, Microsome
# Details: read-out: CLH
row,microsomal CLint at 1 µM [µL/min/mg],Compound
1,16.9,CCOc1cc2ncnc(Nc3ccc(Oc4cc5nncn5cn4)c(C)c3)c2cc1NC(=O)/C(F)=C/[C@@H]1CCCN1C

# Target: Epidermal growth factor receptor (Homo sapiens, UniProt P00533)
# Sequence (P00533 whole entry, the tested form may be a part): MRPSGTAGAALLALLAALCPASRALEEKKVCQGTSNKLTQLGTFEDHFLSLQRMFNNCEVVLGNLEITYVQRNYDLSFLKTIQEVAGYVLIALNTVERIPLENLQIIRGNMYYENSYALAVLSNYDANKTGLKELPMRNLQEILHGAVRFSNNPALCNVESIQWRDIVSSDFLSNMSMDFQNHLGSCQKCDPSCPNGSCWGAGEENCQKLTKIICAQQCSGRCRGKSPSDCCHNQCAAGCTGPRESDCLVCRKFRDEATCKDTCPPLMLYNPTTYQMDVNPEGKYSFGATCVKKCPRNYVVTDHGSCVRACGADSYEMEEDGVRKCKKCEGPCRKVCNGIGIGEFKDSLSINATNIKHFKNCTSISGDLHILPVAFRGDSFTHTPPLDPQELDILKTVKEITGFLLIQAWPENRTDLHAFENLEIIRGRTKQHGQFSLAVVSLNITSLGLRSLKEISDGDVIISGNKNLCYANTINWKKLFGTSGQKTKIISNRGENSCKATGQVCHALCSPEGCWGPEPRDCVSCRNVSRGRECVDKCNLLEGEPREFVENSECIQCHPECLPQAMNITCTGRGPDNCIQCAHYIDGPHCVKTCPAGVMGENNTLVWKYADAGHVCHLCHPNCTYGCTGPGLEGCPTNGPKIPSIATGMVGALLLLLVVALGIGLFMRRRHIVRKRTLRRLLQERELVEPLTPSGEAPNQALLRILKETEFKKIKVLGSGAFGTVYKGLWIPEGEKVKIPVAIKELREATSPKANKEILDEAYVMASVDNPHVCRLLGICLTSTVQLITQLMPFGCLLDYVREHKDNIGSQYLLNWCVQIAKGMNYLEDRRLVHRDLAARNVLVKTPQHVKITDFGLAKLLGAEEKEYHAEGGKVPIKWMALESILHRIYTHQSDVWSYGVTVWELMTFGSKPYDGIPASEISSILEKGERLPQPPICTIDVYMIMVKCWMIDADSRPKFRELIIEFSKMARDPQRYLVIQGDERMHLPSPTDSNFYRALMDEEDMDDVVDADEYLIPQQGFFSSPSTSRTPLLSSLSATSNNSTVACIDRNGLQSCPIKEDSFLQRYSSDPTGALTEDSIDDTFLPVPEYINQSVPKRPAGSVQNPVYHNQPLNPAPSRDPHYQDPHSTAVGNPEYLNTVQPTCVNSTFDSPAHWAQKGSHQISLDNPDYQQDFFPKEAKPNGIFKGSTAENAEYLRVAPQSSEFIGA
# Experiment: Inhibition of wild type human N-terminal GST tagged EGFR (669 to 1210 residues) expressed in Sf21 insect cells incubated for 30 mins in presence of ATP by HTRF analysis
# Details: not given
row,Compound,IC50 [nM]
1,Cc1cc(Nc2ncnc3cc(O)c(NC(=O)/C=C/[C@H]4CCCN4C)cc23)ccc1Oc1cnn2cnnc2c1,11.8
2,Cc1cc(Nc2c(C#N)cnc3ccc(NC(=O)/C=C/CN(C)C)cc23)ccc1Oc1cc2nncn2cn1,20.7
3,Cc1cc(Nc2ncnc3cc(O)c(NC(=O)/C=C/[C@H]4CCCN4C)cc23)ccc1Oc1cnc2ccnn2c1,1.03
4,Cc1cc(Nc2ncnc3cc(O)c(NC(=O)/C=C/[C@H]4CCCN4C)cc23)ccc1Oc1ccc2nccn2c1,2.32
5,Cc1cc(Nc2ncnc3cc(O)c(NC(=O)/C=C/[C@H]4CCCN4C)cc23)ccc1Oc1ccn2ncnc2c1,2.8
6,Cc1cc(Nc2ncnc3ccc(NC(=O)/C=C/CN(C)C)cc23)ccc1Oc1cc2nncn2cn1,2.13
7,Cc1cc(Nc2ncnc3cc(O)c(NC(=O)/C=C/[C@H]4CCCN4C)cc23)ccc1Oc1cc2nccn2cn1,1.11

# Now from value to molecule:
row,IC50 [nM],Compound
1,22.7,Cc1cc(Nc2ncnc3cc(O)c(NC(=O)/C=C/[C@H]4CCCN4C)cc23)ccc1Oc1ccn2cnnc2c1
2,1.47,C=CC(=O)Nc1cc2c(Nc3ccc(Oc4cc5nncn5cn4)c(C)c3)ncnc2cc1OCC
3,2.31,Cc1cc(Nc2ncnc3cc(O)c(NC(=O)/C=C/[C@H]4CCCN4C)cc23)ccc1Oc1ccn2ccnc2c1
4,32.1,CCOc1cc2ncnc(Nc3ccc(Oc4cc5nncn5cn4)c(C)c3)c2cc1NC(=O)/C(F)=C/[C@@H]1CCCN1C

# Tested on: not listed separately
# Experiment: Metabolic stability in human liver microsomes assessed as half life at 1 uM preincubated for 5 mins followed by NADPH addition by LC-MS/MS analysis
# Type: ADME, Microsome
# Details: not given
row,half-life at 1 µM [h],Compound
1,1.37,CCOc1cc2ncnc(Nc3ccc(Oc4cc5nncn5cn4)c(C)c3)c2cc1NC(=O)/C(F)=C/[C@@H]1CCCN1C
